Molecular target: TRKC (Homo sapiens, UniProt Q16288)
Assay: TRKC enzyme assay, single concentration
Conditions: Percentage inhibition at 0.5 μM (n = 2); ATP 10 μM

Chain of TRKC (Q16288 32-839): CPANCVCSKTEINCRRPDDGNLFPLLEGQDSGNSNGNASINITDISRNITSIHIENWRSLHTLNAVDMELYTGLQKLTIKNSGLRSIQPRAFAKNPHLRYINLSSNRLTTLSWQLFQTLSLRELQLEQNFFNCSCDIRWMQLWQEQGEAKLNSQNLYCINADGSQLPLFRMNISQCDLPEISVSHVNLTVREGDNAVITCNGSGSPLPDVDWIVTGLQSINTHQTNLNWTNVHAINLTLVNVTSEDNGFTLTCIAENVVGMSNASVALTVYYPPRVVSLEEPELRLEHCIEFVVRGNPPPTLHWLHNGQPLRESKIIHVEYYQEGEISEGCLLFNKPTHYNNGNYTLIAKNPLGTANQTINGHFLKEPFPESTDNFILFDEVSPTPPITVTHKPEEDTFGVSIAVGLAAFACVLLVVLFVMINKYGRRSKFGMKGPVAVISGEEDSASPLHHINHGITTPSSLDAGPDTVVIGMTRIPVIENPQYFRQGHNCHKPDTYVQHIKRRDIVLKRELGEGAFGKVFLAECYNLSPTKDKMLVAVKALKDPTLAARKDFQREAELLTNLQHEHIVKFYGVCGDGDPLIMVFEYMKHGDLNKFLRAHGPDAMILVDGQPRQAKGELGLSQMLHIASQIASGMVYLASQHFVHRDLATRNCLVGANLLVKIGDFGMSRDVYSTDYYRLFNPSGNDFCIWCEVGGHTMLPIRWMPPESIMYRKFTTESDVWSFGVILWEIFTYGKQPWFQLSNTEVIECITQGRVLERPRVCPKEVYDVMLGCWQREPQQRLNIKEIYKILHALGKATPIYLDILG

Compound | TRKC (% Inh.)
3-ethoxy-N-[(3Z)-3-[(1H-imidazole-5-yl)methylidene]-2-oxo-2,3-dihydro-1H-indol-5-yl]thiophene-2-carboxamide [Compound 120] | 92%
(3Z)-3-(1H-pyrazol-5-ylmethylidene)-2,3-dihydro-1H-indol-2-one [Compound 8] | 92%

Tested on: over 400 kinases
Assay: KinomeSCAN kinome profiling at 1 μM
Assay type: binding
Conditions: KinomeSCAN at 1 μM across over 400 kinases

Compound | >90: Number of kinases inhibited above 90%
COc1ccc2c(c1)/C(=C/c1cnc[nH]1)C(=O)N2 [Compound 1, (3Z)-3-[(1H-imidazole-5-yl)methylidene]-5-methoxy-2,3-dihydro-1H-indol-2-one] | 15
CC(=O)c1ccc2c(c1)/C(=C/c1ccc[nH]1)C(=O)N2 [Compound 27, (3Z)-5-acetyl-3-(1H-pyrrol-2-ylmethylidene)-2,3-dihydro-1H-indol-2-one] | 62
O=C1Nc2ccc(C(=O)c3ccccc3)cc2/C1=C/c1cnc[nH]1 [Compound 44, (3Z)-5-benzoyl-3-(1H-imidazole-5-ylmethylidene)-2,3-dihydro-1H-indol-2-one] | 15
O=C1Nc2ccc(NC(=O)c3ccccc3)cc2/C1=C/c1ccc[nH]1 [Compound 72, N-[(3Z)-2-oxo-3-(1H-pyrrol-2-ylmethylidene)-2,3-dihydro-1H-indol-5-yl]benzamide] | 10
O=C1Nc2ccc(NC(=O)c3ccccc3)cc2/C1=C/c1cnc[nH]1 [Compound 73, N-[(3Z)-3-(1H-imidazole-5-ylmethylidene)-2-oxo-2,3-dihydro-1H-indol-5-yl]benzamide] | 9
O=C1Nc2ccc(NC(=O)c3ccccc3)cc2/C1=C/c1ncc[nH]1 [Compound 74, N-[(3Z)-3-(1H-imidazole-2-ylmethylidene)-2-oxo-2,3-dihydro-1H-indol-5-yl]benzamide] | 11
COc1ccccc1C(=O)Nc1ccc2c(c1)/C(=C/c1ncc[nH]1)C(=O)N2 [Compound 97, N-[(3Z)-3-(1H-imidazole-2-ylmethylidene)-2-oxo-2,3-dihydro-1H-indol-5-yl]-2-methoxybenzamide] | 7
O=C1Cc2cc(NC(=O)c3cc4sccc4s3)ccc2N1 [Compound 111] | 15
Cc1nc[nH]c1/C=C1\C(=O)Nc2ccc(NC(=O)c3ccccc3)cc21 [Compound 128, N-[(3Z)-3-[(4-methyl-1H-imidazole-5-yl)methylidene]-2-oxo-2,3-dihydro-1H-indol-5-yl]benzamide] | 11

Same assay, conditions: KinomeSCAN at 1 μM, selectivity score

Compound | S(10)
CC(=O)c1ccc2c(c1)/C(=C/c1ccc[nH]1)C(=O)N2 [Compound 27, (3Z)-5-acetyl-3-(1H-pyrrol-2-ylmethylidene)-2,3-dihydro-1H-indol-2-one] | 0.154

Molecular target: T1, FLT3 (Homo sapiens, UniProt P36888)
T1 sequence (P36888 27-993): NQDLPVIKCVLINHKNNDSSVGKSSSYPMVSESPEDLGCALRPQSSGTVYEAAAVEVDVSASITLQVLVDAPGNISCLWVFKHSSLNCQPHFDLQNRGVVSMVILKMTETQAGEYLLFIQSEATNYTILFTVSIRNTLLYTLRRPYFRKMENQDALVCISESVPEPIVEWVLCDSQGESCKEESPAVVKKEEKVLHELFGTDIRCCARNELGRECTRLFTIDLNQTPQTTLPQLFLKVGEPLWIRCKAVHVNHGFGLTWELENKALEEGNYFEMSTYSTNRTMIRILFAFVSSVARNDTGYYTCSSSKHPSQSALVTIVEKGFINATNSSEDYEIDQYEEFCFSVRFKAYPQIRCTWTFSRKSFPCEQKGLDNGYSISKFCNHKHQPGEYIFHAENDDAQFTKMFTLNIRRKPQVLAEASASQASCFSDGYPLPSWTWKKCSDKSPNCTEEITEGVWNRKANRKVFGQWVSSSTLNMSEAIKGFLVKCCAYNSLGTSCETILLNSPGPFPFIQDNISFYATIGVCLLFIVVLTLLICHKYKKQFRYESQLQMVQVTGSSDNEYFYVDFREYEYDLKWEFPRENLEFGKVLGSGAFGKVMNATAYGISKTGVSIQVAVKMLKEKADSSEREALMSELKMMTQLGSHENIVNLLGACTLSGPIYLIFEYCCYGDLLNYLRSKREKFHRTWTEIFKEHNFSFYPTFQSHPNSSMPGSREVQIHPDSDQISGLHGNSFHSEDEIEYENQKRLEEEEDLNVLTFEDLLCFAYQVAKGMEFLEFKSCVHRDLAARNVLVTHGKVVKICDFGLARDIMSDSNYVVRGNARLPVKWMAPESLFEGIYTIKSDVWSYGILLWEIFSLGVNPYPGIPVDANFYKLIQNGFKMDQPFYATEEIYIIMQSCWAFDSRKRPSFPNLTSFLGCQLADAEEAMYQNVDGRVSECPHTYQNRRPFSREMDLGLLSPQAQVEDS
Assay: FLT3 enzyme assay, single concentration
Conditions: read-out: FLT3 (% Inh.)

Compound | inhibition at 0.5 µM
COc1ccsc1C(=O)Nc1ccc2c(c1)/C(=C/c1cnc[nH]1)C(=O)N2 [Compound 119, (Z)-N-(3-((1H-imidazole-5-yl)methylene)-2-oxoindolin-5-yl)-3-methoxythiophene-2-carboxamide] | 80%

Source: paper PMC11421834 (European journal of medicinal chemistry, 2024)
